Reference: US20130123358A1, “Metabolic Benefits to Butyrate as a Chronic Diet Supplement” (priority 2009, published 2013)

What was measured:
[1] = system: obese C57BL/6J mice on HFD; test: Treatment of obese mice (16 weeks HFD) with butyrate for 5 weeks; format: in vivo, mouse
Description: In the above examples, butyrate was administrated together with HFD during the induction of obesity. To test butyrate in the treatment of obesity and insulin resistance, butyrate was administered to obese mice that had been on HFD for 16 weeks. Obesity was induced in C57BL/6J mice fed on HFD for 16 weeks (21 weeks in age). The obese mice were then treated with butyrate through food supplement for 5 weeks. […] In the control group, the body weight was increased by 15.8% (from 35.9 g to 41.6 g) during the same time period. Values are the means±SE (N=8 in each group). * P<0.05.
Fat content was determined in the body using NMR at the end of 5 week treatment with butyrate. Consistent with the change in body weight, the fat content was reduced by 10% in the butyrate group (FIG. 9B). At the end of 5 weeks, ITT was performed after 4 hours fast and HOMA IR was measured as described above. […] Values are the means±SE (N=8 in each group). * P<0.05.

L6 muscle cells = test: Immunoblot of L6 myotubes; format: cell-based; conditions: 500 μM sodium butyrate, 4 hours
Description: To further test the effect of butyrate on muscle, AMPK and PGC-1α were assayed in L6 muscle cells treated with butyrate. Differentiated L6 myotubes were starved in 0.25% BSA DMEM for overnight. The cells were treated with 500 μM of sodium butyrate for 4 hours and analyzed in an immunoblot. […] In the same culture, the PGC-1α protein was increased (FIG. 6A).

epididymal fat pad = test: White adipose tissue: fat pad morphology and gene expression; format: in vivo, mouse
Description: Total RNA was extracted from frozen tissues (kept at −80° C.) using Tri-Reagent (T9424, Sigma) as described elsewhere (16). Taqman RT-PCR primer and probe were used to determine mRNA for PGC-1α (Mm00447183_m1), UCP-1 (Mm00494069_m1), PPARδ (Mm01305434_m1) and CPT1b (Mm00487200_m1). The reagents were purchased from Applied Biosystems (Foster City, Calif.). Mouse ribosome 18S rRNA_s1 (without intron-exon junction) was used as an internal control. Reaction was conducted with 7900 HT Fast real time PCR System (Applied Biosystems, Foster City, Calif.).
Fresh tissues (muscle, fat and liver) were collected at 16 weeks of age after 12 weeks butyrate feeding and fixed in 10% neutral buffered formalin solution (HT50-1-2, Sigma). The tissue slides were obtained through serial cross-section cutting at 8 um thickness and processed with a standard procedure. Briefly, the slides were deparaffinated and stained in haematoxylin (#101542, Surgipath) for 15 min, and rinsed in water until sections are blue. Then, slides were stained in Eosin (E4009, Sigma), dehydrated quickly in 95% ethanol and treated with […]. The sections were mounted and photographed with Nikon microscope (Eclipse TS100, Japan).
The epididymal fat pad was examined to test this effect of butyrate. The tissue was collected at 13 weeks on HFD (18 weeks in age) and used to make a tissue slide (FIG. 3A). After H&E staining, the slide was photographed under a microscope at magnification 20× (FIG. 3A). Gene expression was determined by qRT-PCR at day 8 after induction of cell differentiation of 3T3-L1 cells. Butyrate was used at 100 uM during induction of adipogenesis. Triglycerides in the 3T3-L1 mature adipocyte cells were quantified using Oil red 0 staining at the day 8 post-induction of differentiation (FIG. 3C). In addition, levels of mRNA for leptin, adiponectin, F4/80 (macrophage marker), TNF-α, and iNOS were determined in the epididymal fat and their relative levels are presented in bar figures (FIGS. 3D-3H). In FIGS. 3A-3H, data are represented as mean±SE (n=8). *P<0.05, **P<0.001.

[2] = butyrate 5% w/w in HFD vs control, mRNA

Structure (SMILES): CCCC(=O)[O-].[Na+] [sodium butyrate]
- HOMA-IR, reduction ([1]; 5-week butyrate treatment): 50%
- fasting glucose, reduction ([1]; 5-week butyrate treatment): 30%
- fasting glucose after treatment ([1]; 5-week butyrate treatment, from 131): 98.6 mg/dL
- loss of original body weight ([1]; 5-week treatment with butyrate in food): 10.2%
- ITT ([1]; end of 5-week butyrate treatment, 4 hours fast): improved significantly
- fat content, reduction ([1]; end of 5-week butyrate treatment, NMR): 10%
- body weight after treatment ([1]; end of 5-week butyrate treatment, from 37.6 g): 34.4 g
- AMPK phosphorylation (L6 muscle cells): increased
- PGC-1α protein (L6 muscle cells): increased
- p38 phosphorylation (L6 muscle cells): increased
- TNF-α expression in epididymal fat (epididymal fat pad; [2]): reduced
- iNOS expression in epididymal fat (epididymal fat pad; [2]): reduced
- leptin expression in epididymal fat (epididymal fat pad; [2]): lower level
- macrophage marker F4/80 expression in epididymal fat (epididymal fat pad; [2]): reduced
- epididymal fat pad mass, less than control (epididymal fat pad; butyrate 5% w/w in HFD, 13 weeks): 80%
- adipocyte size, smaller than control (epididymal fat pad; butyrate 5% w/w in HFD, 13 weeks, H&E): 50%
- adiponectin expression in epididymal fat, higher than control (epididymal fat pad; butyrate 5% w/w in HFD, mRNA): 50%
